Key:
HCMV = assay: Viral payload delivery, pp65 localization; format: cell-based, Human cytomegalovirus; details: human fibroblasts treated, then infected with HCMV
Procedure: (§1) For CMV entry assays, subconfluent cells were grown on glass coverslips in 12-well plates. Integrin neutralizing antibodies or peptides were incubated in serum-free DMEM with cell monolayer for 30 minutes at 37° C. Cells were washed with phosphate-buffered saline (PBS) and incubated with HCMV strain AD169, MCMV Smith strain, or MCMV-GFP for 60 minutes at 37° C. Any non-penetrated virus was inactivated with low-pH citrate buffer (40 mM citric acid, 10 mM KCl, 135 mM NaCl, pH 3.0). The cells were incubated 20-24 hours at 37° C. in DMEM supplemented with 2% bovine calf serum (BCS). […] Experiments were performed in triplicate with a minimum of 1000 cells scored per coverslip. […] Cells were incubated 6 hours at 37° C. in DMEM supplemented with 10% BCS prior to lysis (100 mM sodium phosphate, 10 mM KCl, 1 mM magnesium sulfate, 0.1% NP-40, pH 7.4). β-galactosidase activity was measured by addition of o-nitrophenyl-β-D-galactopyranoside (ONPG) and the absorbance was monitored at 420 nm.
Next, an assay was performed that directly measured delivery of an internal virion component. […] FIG. 6B is a histogram showing the results of a series of assays wherein human fibroblasts were treated with various integrin-blocking agents, infected with HCMV, and then assayed for viral payload as measured by pp65 localization. […]

HCMV strain AD169 = assay: Virus entry assay, HCMV infectivity by IE gene expression; format: cell-based, Human cytomegalovirus; details: NHDFs treated prior to HCMV challenge
Procedure: as §1
FIG. 2A presents the results of a series of assays wherein NHDFs were treated with HCMV gB disintegrin-like peptide, gB disintegrin-like Null peptide, RGD, or RGE peptide prior to HCMV challenge (as indicated in the FIG. 2A). Infectivity was determined by IE gene expression. […]

HCMV AD 169 = assay: Virus binding assay (HCMV attachment, gB ELISA); format: cell-based, Human cytomegalovirus; details: NHDF, 4° C.; 1 mM gB disintegrin-like peptide, 1:50 DE9, α2 and α6 integrin antibodies 20 μg/mL
Procedure: NHDF cells were grown in 96-well plates and treated with integrin-neutralizing antibodies, peptides, or heparin for 60 minutes at 4° C. Cells were then challenged with HCMV AD 169 at a multiplicity of infection (MOI) of 5 pfu/cell for 60 minutes at 4° C. Unbound virus was removed and cells were washed and fixed with 3% paraformaldehyde. Bound HCMV was detected with monoclonal antibody 27-78, horseradish peroxidase (HRP)-conjugated goat anti-mouse secondary antibody, and ImmunoPure TMB Substrate Kit (Pierce, Rockford, Ill.). Absorbance was measured at 450 nm. All experiments were performed in triplicate.
During virus infection, integrins are utilized as primary viral attachment receptors or as post-attachment (fusion-activating) or internalization receptors.^11 To determine at which step in the HCMV entry pathway integrins are functioning, cell binding (i.e., attachment) experiments were performed, as well as assays to measure viral payload delivery into the cytoplasm (internalization). For the binding assays, virus was bound at 4° C. to allow for stable virus binding, but to restrict fusion and internalization. The results are depicted in FIG. 6A. […] Attachment was measured by gB ELISA.

HSV-1(KOS)gL86 = assay: HSV entry assay (β-galactosidase activity); format: cell-based, herpes simplex virus-1; details: NHDF cells treated with peptide
Procedure: For CMV entry assays, subconfluent cells were grown on glass coverslips in 12-well plates. Integrin neutralizing antibodies or peptides were incubated in serum-free DMEM with cell monolayer for 30 minutes at 37° C. Cells were washed with phosphate-buffered saline (PBS) and incubated with HCMV strain AD169, MCMV Smith strain, or MCMV-GFP for 60 minutes at 37° C. Any non-penetrated virus was inactivated with low-pH citrate buffer (40 mM citric acid, 10 mM KCl, 135 mM NaCl, pH 3.0). The cells were incubated 20-24 hours at 37° C. in DMEM supplemented with 2% bovine calf serum (BCS). Immunofluorescence analysis was performed as previously described^28 with either mouse anti-IE monoclonal antibody 1203, mouse anti-pp65 monoclonal antibody or rabbit anti-MCMV e1 polyclonal, followed by detection with a fluorescein-conjugated goat anti-mouse secondary or a fluorescein-conjugated goat anti-rabbit secondary antibody. Nuclei were stained with 300 nM 4′,6-diamidino-2-phenylindole (DAPI). Experiments were performed in triplicate with a minimum of 1000 cells scored per coverslip. […] Cells were incubated 6 hours at 37° C. in DMEM supplemented with 10% BCS prior to lysis (100 mM sodium phosphate, 10 mM KCl, 1 mM magnesium sulfate, 0.1% NP-40, pH 7.4). β-galactosidase activity was measured by addition of o-nitrophenyl-β-D-galactopyranoside (ONPG) and the absorbance was monitored at 420 nm. […]

MCMV Smith strain = assay: Virus entry assay, MCMV infectivity by e1-positive cells; format: cell-based, Murine cytomegalovirus; details: mouse fibroblasts (murine 3T3) treated with peptide
Procedure: as §1, with “nm. […]” for “nm.”
FIG. 4B is a histogram showing the results of an assay wherein GD25, GD25β1 and 3T3 cells were treated with β1, β3, and β1+β3 antibodies, followed by MCMV infection. As described above, infectivity was determined by scoring e1-(early protein) positive cells. […]

diI-labeled HCMV = format: cell-based, Human cytomegalovirus; details: gBDLD or BSA 320 μg/mL, soluble heparin 50 μg/mL; 24 hours post-infection

Substance	uptake of pp65 tegument protein (HCMV)	HCMV infectivity (IE gene expression) (HCMV strain AD169)	HCMV attachment (gB ELISA) (HCMV AD 169)	ability of HSV-1 to infect cells (HSV-1(KOS)gL86)	MCMV infectivity (MCMV Smith strain)	HCMV fusion (dye transfer) and gene expression (diI-labeled HCMV)
AVCSMAGGTAAIRAERNIIC (listed as Human cytomegalovirus) [gB disintegrin-like null peptide, null peptide with alanine substitutions in the disintegrin-like consensus residues, reference compound]	not	able to infect	–	–	–	–
RVCSMAQGTDLIRFERNIIC (listed as Human cytomegalovirus) [gB disintegrin-like peptide, synthetic 20 amino acid peptide encompassing the HCMV gB disintegrin-like domain]	little uptake	dose-dependent inhibitory response	no effect	no effect	dramatic reduction in MCMV infectivity	–
heparin [soluble heparin, reference compound]	–	–	prevented virus attachment	–	–	blocks HCMV attachment
